Values after ≈ are worked out from the molar mass of the structure shown. Active and inactive are the calls of the source. No cut-off for these calls is given here.
What was measured:
Calf thymus DNA [1] = experiment: Binding affinity to calf thymus DNA assessed as hyperchromic effect by UV-Vis spectroscopy; format: nucleic-acid assay; settings: Bos taurus
Calf thymus DNA [2] = experiment: Binding affinity to calf thymus DNA by fluorescence spectra analysis; format: nucleic-acid assay; settings: Bos taurus
Calf thymus DNA [3] = experiment: Binding affinity to calf thymus DNA assessed as appearance of positive band by cholesteric liquid crystal dispersion-based circular dichroism method; format: nucleic-acid assay; settings: Bos taurus
Aliivibrio fischeri [4] = experiment: Binding affinity to Aliivibrio fischeri H-NS dependent PluxC promoter assessed as luminescence intensity measured after 3 hrs by bioluminescence assay relative to control
Aliivibrio fischeri [5] = experiment: Binding affinity to Aliivibrio fischeri H-NS dependent Prf promoter assessed as luminescence intensity measured after 3 hrs by bioluminescence assay relative to control
Aliivibrio logei [6] = experiment: Binding affinity to Aliivibrio logei H-NS dependent Pr1 promoter assessed as luminescence intensity measured after 3 hrs by bioluminescence assay relative to control
Aliivibrio logei [7] = experiment: Binding affinity to Aliivibrio logei H-NS dependent Pr2 promoter assessed as luminescence intensity measured after 3 hrs by bioluminescence assay relative to control
[8] = molecular target: T1, Transcriptional activator protein LuxR (Aliivibrio fischeri) (UniProt P12746); experiment: (§1) Inhibition of Aliivibrio fischeri LuxR quorum sensing system expressed in Escherichia coli MG1655 pVFR1 harboring Prf promoter assessed as reduction in LuxR transcriptional activity by measuring Lux gene expression in presence of LuxR protein activator and presence of 10^-6 M AHL by bioluminescence assay relative to control
T1 sequence (whole entry): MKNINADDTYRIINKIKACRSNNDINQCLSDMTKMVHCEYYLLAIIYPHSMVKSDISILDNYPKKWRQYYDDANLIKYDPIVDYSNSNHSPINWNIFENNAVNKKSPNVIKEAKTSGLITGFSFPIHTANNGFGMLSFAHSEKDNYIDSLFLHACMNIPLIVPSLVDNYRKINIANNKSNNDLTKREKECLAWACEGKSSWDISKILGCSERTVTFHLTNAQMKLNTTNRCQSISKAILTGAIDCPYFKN

[9] = molecular target: T1, Transcriptional activator protein LuxR (Aliivibrio fischeri); experiment: as §1, with “10^-7” for “10^-6”
[10] = molecular target: T1, Transcriptional activator protein LuxR (Aliivibrio fischeri); experiment: as §1, with “10^-8” for “10^-6”
Human alphaherpesvirus 1 = experiment: Antiviral activity against Herpes simplex virus 1 infected in African green monkey vero cells assessed as reduction in plaque formation treated 1 hr post viral infection by plaque reduction assay; format: functional, organism-based; settings: Human alphaherpesvirus 1, Vero
[11] = Selectivity index, ratio of CC50 for cytotoxicity against African green monkey Vero cells assessed as reduction in cell viability measured after 72 hrs by MTT assay to EC50 for antiviral activity against Herpes simplex virus 1 infected in African green monkey Vero cells assessed as reduction in plaque formation pretreated with compound for 1 hr followed by viral infection at 0.01 PFU/cells for 1 hr by plaque reduction assay; format: toxicity, cell-based; settings: read-out: Ratio CC50/EC50
[12] = Selectivity index, ratio of CC50 for cytotoxicity against African green monkey Vero cells assessed as reduction in cell viability measured after 72 hrs by MTT assay to EC50 for antiviral activity against Herpes simplex virus 1 infected in African green monkey vero cells assessed as reduction in plaque formation treated 1 hr post viral infection; format: toxicity, cell-based; settings: read-out: Ratio CC50/EC50
[13] = molecular target: Human immunodeficiency virus type 1 integrase (Human immunodeficiency virus 1, UniProt Q7ZJM1); experiment: Inhibition of recombinant HIV1 integrase expressed in Escherichia coli Rosetta assessed as reduction in 3' end processing activity using [32P]-labelled U5B/U5A DNA as substrate measured after 2 hrs by polyacrylamide gel electrophoresis method
Chain of Human immunodeficiency virus type 1 integrase (Q7ZJM1 whole entry): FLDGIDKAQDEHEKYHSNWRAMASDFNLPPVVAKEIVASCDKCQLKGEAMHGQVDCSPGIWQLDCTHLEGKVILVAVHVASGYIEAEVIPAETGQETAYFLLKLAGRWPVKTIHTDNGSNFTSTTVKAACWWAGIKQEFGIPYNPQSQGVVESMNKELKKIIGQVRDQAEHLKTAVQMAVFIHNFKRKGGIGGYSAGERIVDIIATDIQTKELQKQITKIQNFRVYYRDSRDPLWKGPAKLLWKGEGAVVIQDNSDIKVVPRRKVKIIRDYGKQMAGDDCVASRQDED

HCT-116 = experiment: Cytotoxicity against human HCT116 cells assessed as reduction in cell viability by MTT assay; format: cell-based
[14] = Cytotoxicity against human NKE cells assessed as reduction in cell viability by MTT assay; format: cell-based
MCF7 = experiment: Cytotoxicity against human MCF7 cells assessed as reduction in cell viability by MTT assay; format: cell-based
[15] = Drug penetration in human HCT116 cells nucleus at 200 uM measured after 2 days by fluorescence microscopy; format: ADME, subcellular; settings: hct-116, 48 h
[16] = molecular target: T1, Transcriptional activator protein LuxR (Aliivibrio fischeri); experiment: as §1, with “and absence” for “and presence”, “of” for “of 10^-6 M”
[17] = Solubility of the compound in water; format: physicochemical; settings: buffer

Structure (SMILES) | Activity (Calf thymus DNA [1]) | Activity (Calf thymus DNA [2]) | Activity (Calf thymus DNA [3]) | Flu intensity (Aliivibrio fischeri [4]) | Flu intensity (Aliivibrio fischeri [5]) | Flu intensity (Aliivibrio logei [6]) | Flu intensity (Aliivibrio logei [7]) | fold change (FC) [8] | fold change (FC) [9] | fold change (FC) [10] | EC50 (Human alphaherpesvirus 1) | selectivity ratio at 72 h [11] | selectivity ratio at 72 h [12] | IC50 [13] | IC50 (HCT-116) | IC50 [14] | IC50 (MCF7) | Drug uptake [15] | fold change (FC) [16] | solubility [17]
CN(C)CCCNC(=O)c1ccc2nc(-c3ccc4nc(CNC(=O)CCN5CCN(CCC(=O)NCc6nc7ccc(-c8nc9ccc(C(=O)NCCCN(C)C)cc9[nH]8)cc7[nH]6)CC5)[nH]c4c3)[nH]c2c1 | Active | Active | Active | 110000 | 122000 | 210000 | 150000 | 8 | 3 | 1 | 30 µg/mL (≈ 30.7 µM) | 703 | 18 | 2.6 µM | > 300 µM | > 300 µM | > 300 µM | Active | 27 | Soluble
CN1CCN(c2ccc3nc(-c4ccc5nc(CNC(=O)CCCCN6CCN(CCCCC(=O)NCc7nc8ccc(-c9nc%10ccc(N%11CCN(C)CC%11)cc%10[nH]9)cc8[nH]7)CC6)[nH]c5c4)[nH]c3c2)CC1 |  |  |  |  |  |  |  |  |  |  |  |  |  | 3.9 µM |  |  |  |  |  | 
CN(C)CCCNC(=O)c1ccc2nc(-c3ccc4nc(CN)[nH]c4c3)[nH]c2c1 |  |  |  |  |  |  |  |  |  |  | 27 µg/mL (≈ 69 µM) | 11 | 35 |  |  |  |  |  |  | 
CN1CCN(c2ccc3nc(-c4ccc5nc(CNC(=O)CN6CCN(CC(=O)NCc7nc8ccc(-c9nc%10ccc(N%11CCN(C)CC%11)cc%10[nH]9)cc8[nH]7)CC6)[nH]c5c4)[nH]c3c2)CC1 |  |  |  |  |  |  |  |  |  |  |  |  |  | > 15 µM |  |  |  |  |  | 
CN(C)CCCNC(=O)c1ccc2nc(-c3ccc4nc(CNC(=O)CN5CCN(CC(=O)NCc6nc7ccc(-c8nc9ccc(C(=O)NCCCN(C)C)cc9[nH]8)cc7[nH]6)CC5)[nH]c4c3)[nH]c2c1 |  |  |  | 38000 | 4100 | 1700 | 18000 |  |  |  | 16.7 µg/mL (≈ 17.6 µM) | 5750 | 34 | 2.1 µM | > 200 µM | > 200 µM | > 200 µM | Active |  | Soluble
Nc1nc2c(ncn2COCCO)c(=O)[nH]1 [ACYCLOVIR] |  |  |  |  |  |  |  |  |  |  | 1.2 µg/mL (≈ 5.33 µM) | 86 | 916 |  |  |  |  |  |  | 
CN1CCN(c2ccc3nc(-c4ccc5nc(CNC(=O)CCCN6CCN(CCCC(=O)NCc7nc8ccc(-c9nc%10ccc(N%11CCN(C)CC%11)cc%10[nH]9)cc8[nH]7)CC6)[nH]c5c4)[nH]c3c2)CC1 |  |  |  |  |  |  |  |  |  |  |  |  |  | 9.9 µM |  |  |  |  |  | 
CN1CCN(c2ccc3nc(-c4ccc5nc(CNC(=O)CCN6CCN(CCC(=O)NCc7nc8ccc(-c9nc%10ccc(N%11CCN(C)CC%11)cc%10[nH]9)cc8[nH]7)CC6)[nH]c5c4)[nH]c3c2)CC1 |  |  |  |  |  |  |  |  |  |  |  |  |  | 7 µM |  |  |  |  |  | 
CN(C)CCCNC(=O)c1ccc2nc(-c3ccc4nc(CNC(=O)CCCN5CCN(CCCC(=O)NCc6nc7ccc(-c8nc9ccc(C(=O)NCCCN(C)C)cc9[nH]8)cc7[nH]6)CC5)[nH]c4c3)[nH]c2c1 |  | Active |  | 17000 | 4400 | 3300 | 50000 |  |  |  | 15 µg/mL (≈ 14.9 µM) | 95 | 70 | 1.8 µM | > 500 µM | > 500 µM | > 500 µM | Active |  | Soluble
CN(C)CCCNC(=O)c1ccc2nc(-c3ccc4nc(CNC(=O)CCCCN5CCN(CCCCC(=O)NCc6nc7ccc(-c8nc9ccc(C(=O)NCCCN(C)C)cc9[nH]8)cc7[nH]6)CC5)[nH]c4c3)[nH]c2c1 | Active |  | Active | 3500 | 4300 | 1000 | 1800 |  |  |  | 31 µg/mL (≈ 30 µM) |  | 34 | 1.1 µM | > 500 µM | > 500 µM | > 500 µM | Active |  | Soluble
